The record followed here is patent US20060100567A1, “Microsurgical tissue treatment system” (Rocky Mountain Biosystems, Inc, priority 2004, published 2006).

This test is described as follows: Delivery of a topical anesthetic through micro-ablated stratum corneum. In kind it is in vivo. The note with it: solution of 4% lidocaine applied for five minutes to approx. 1 cm^2 area ablated by piezoelectric actuator with 60 micron aluminum oxide particles, 10-15 pulses, 20 kHz. As to the method: A piezoelectric actuator was fitted with 60 micron aluminum oxide particles fixed to its surface so as to provide an approximate 1 cm^2 treatment area. Ten to fifteen pulses of less than one second duration were applied with force of less than 1 pound to the area and frequency of 20 kHz. […] A solution of 4% lidocaine was applied to the area and incubated for five minutes. The excess lidocaine was wiped off, and a series of probes was made in and around the area of treatment using a 20 gauge needle or by pinching.

On to `CCN(CC)CC(=O)Nc1c(C)cccc1C` [lidocaine], for which the “anesthesia (sensation on probing with a 20 gauge needle or pinching)” value is on record as “significant anesthesia was obtained”.
